Source: ChEMBL document CHEMBL3046659, “Synthesis and Biological Evaluation of Allosteric A1-Adenosine Receptor Modulators Structurally Related to (2-Amino-4,5,6,7-Tetrahydro-Benzo[B]Thiophen-3-YL)-(4-Chloro-Phenyl)-Methanone, a Potent Compound Useful to Reduce Neuropathic Pain” (Med Chem Res, 2005)
Activity calls are given as the source filed them. The rule behind the calls is not given here.

What was measured:
[1] = biological target: T1, Adenosine receptor A1 (Homo sapiens) (UniProt P30542); test: Allosteric modulation of Homo sapiens (human) Adenosine A1 receptor expressed in CHO cells assessed as reduction of cAMP level at 0.1 uM after 6 min by radioimmunoassay; type: functional, cell-based; set-up: scale not given: the % may be the effect or the level left
T1 sequence (whole entry): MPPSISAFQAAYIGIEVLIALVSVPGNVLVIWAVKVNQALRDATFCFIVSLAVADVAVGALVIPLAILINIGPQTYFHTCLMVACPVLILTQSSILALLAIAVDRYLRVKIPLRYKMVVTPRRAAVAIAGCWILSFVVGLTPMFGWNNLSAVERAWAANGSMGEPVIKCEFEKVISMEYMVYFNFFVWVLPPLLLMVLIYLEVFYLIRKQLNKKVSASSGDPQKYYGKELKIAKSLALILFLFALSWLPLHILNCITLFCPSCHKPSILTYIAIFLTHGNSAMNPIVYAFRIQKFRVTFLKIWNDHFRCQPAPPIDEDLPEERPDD

[2] = biological target: T1, Adenosine receptor A1 (Homo sapiens); test: Inverse agonist activity at Homo sapiens (human) Adenosine A1 receptor expressed in CHO cells assessed as increase in cAMP level at 0.01 uM after 6 min by radioimmunoassay; type: functional, cell-based
[3] = biological target: T1, Adenosine receptor A1 (Homo sapiens); test: Allosteric modulation of Homo sapiens (human) Adenosine A1 receptor expressed in CHO cells assessed as reduction of cAMP level at 1 uM after 6 min by radioimmunoassay; type: functional, cell-based; set-up: scale not given: the % may be the effect or the level left
[4] = biological target: T1, Adenosine receptor A1 (Homo sapiens); test: Antagonist activity at Homo sapiens (human) Adenosine A1 receptor expressed in CHO cells assessed as cAMP level at 0.01 to 10 uM after 6 min by radioimmunoassay; type: functional, cell-based
[5] = biological target: T1, Adenosine receptor A1 (Homo sapiens); test: Allosteric modulation of Homo sapiens (human) Adenosine A1 receptor expressed in CHO cells assessed as reduction of cAMP level at 10 uM after 6 min by radioimmunoassay; type: functional, cell-based; set-up: scale not given: the % may be the effect or the level left
[6] = biological target: T1, Adenosine receptor A1 (Homo sapiens); test: Allosteric modulation of Homo sapiens (human) Adenosine A1 receptor expressed in CHO cells assessed as reduction of cAMP level at 0.01 uM after 6 min by radioimmunoassay; type: functional, cell-based; set-up: scale not given: the % may be the effect or the level left
[7] = biological target: T1, Adenosine receptor A1 (Homo sapiens); test: Inverse agonist activity at Homo sapiens (human) Adenosine A1 receptor expressed in CHO cells assessed as increase in cAMP level at 1 uM after 6 min by radioimmunoassay; type: functional, cell-based
[8] = biological target: T1, Adenosine receptor A1 (Homo sapiens); test: Inverse agonist activity at Homo sapiens (human) Adenosine A1 receptor expressed in CHO cells assessed as increase in cAMP level at 10 uM after 6 min by radioimmunoassay; type: functional, cell-based
[9] = biological target: T1, Adenosine receptor A1 (Homo sapiens); test: Displacement of [3H]CCPA from Homo sapiens (human) A1 receptor expressed in CHO cells at 10 uM after 90 min; type: cell-based
[10] = biological target: T2, Adenosine receptor A1 (Rattus norvegicus) (UniProt P25099); test: Displacement of [3H]CCPA from A1 receptor in Rattus norvegicus (rat) brain membrane at 10 uM after 90 min
T2 sequence (whole entry): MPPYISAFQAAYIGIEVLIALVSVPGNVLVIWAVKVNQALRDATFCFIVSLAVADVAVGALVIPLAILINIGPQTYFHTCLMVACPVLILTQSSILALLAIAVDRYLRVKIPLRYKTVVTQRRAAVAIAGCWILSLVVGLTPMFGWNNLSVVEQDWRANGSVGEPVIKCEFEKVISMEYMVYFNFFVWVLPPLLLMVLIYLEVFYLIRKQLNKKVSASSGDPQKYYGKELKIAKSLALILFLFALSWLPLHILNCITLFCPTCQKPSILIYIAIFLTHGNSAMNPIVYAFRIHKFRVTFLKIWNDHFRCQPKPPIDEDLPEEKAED

[11] = biological target: T1, Adenosine receptor A1 (Homo sapiens); test: Displacement of [3H]CCPA from A1 receptor in Homo sapiens (human) brain membrane at 10 uM after 90 min
[12] = biological target: T1, Adenosine receptor A1 (Homo sapiens); test: Inverse agonist activity at Homo sapiens (human) Adenosine A1 receptor expressed in CHO cells assessed as increase in cAMP level at 0.1 uM after 6 min by radioimmunoassay; type: functional, cell-based
[13] = biological target: T1, Adenosine receptor A1 (Homo sapiens); test: Allosteric enhancer activity at Homo sapiens (human) Adenosine A1 receptor expressed in CHO cells assessed as […] in cAMP level at 10 uM after 6 min by radioimmunoassay; type: functional, cell-based

Structure (SMILES) | Activity [1] [%] | Activity [2] | Activity [3] [%] | Activity [4] | Activity [5] [%] | Activity [6] [%] | Activity [7] | Activity [8] | Activity [9] [%] | Bmax [9] [%] | Activity [10] [%] | Activity [11] [%] | Activity [12] | Activity [13]
COc1ccc(C2SCc3c(sc(N)c3C(=O)c3ccc(Cl)cc3)S2)cc1 (stereo unspecified) | -13 | Active | -17 | Active | -5 | 4 | – | – | – | – | – | – | – | –
Nc1sc2c(c1C(=O)c1ccc(Cl)cc1)CCC1(C2)OCCO1 | -14 | – | 3 | Active | 28 | -17 | Active | Active | – | – | – | – | – | –
Nc1sc2c(c1C(=O)c1ccc(Cl)cc1)CCC(O)C2 (stereo unspecified) | -13 | – | -2 | Active | 52 | -3 | – | – | – | – | – | – | – | –
Nc1sc2c(c1C(=O)c1ccc(Cl)cc1)CCC(c1ccccc1)C2 (stereo unspecified) | -1 | Active | -11 | Active | -7 | 20 | – | – | 65 | 53 | 33 | 29 | – | –
Nc1sc2c(c1C(=O)c1ccc(Cl)cc1)CCCC2 | -23 | – | -26 | Active | -55 | -8 | – | – | – | – | – | – | – | –
CS(=O)(=O)OC1CCc2c(sc(N)c2C(=O)c2ccc(Cl)cc2)C1 (stereo unspecified) | -1 | Active | 15 | Active | 46 | 11 | Active | Active | – | – | – | – | – | –
Nc1sc2c(c1C(=O)c1ccc(Cl)cc1)CCSC2 | -10 | Active | 16 | Active | -0.3 | 15 | Active | – | – | – | – | – | – | –
Nc1sc2c(c1C(=O)c1ccc(Cl)cc1)CCC(Cc1ccccc1)C2 (stereo unspecified) | -6 | – | -1 | Active | 16 | -11 | – | Active | – | – | – | – | – | –
Nc1sc2c(c1C(=O)c1ccc(Cl)cc1)CCS2 | 11 | – | 1 | – | -35 | -1 | Active | – | – | – | – | – | Active | Active
Nc1sc2ccccc2c1C(=O)c1ccc(Cl)cc1 | -5 | – | -6 | – | -29 | -8 | – | – | – | – | – | – | – | Active
